In patent US11845992B2, “Compositions and methods for predicting response and resistance to CDK4/6 inhibition” (DANA-FARBER CANCER INSTITUTE, INC., priority 2017, dated 2023):
“Also recorded” adds a separate entry of the source. Where two headings read alike, the source gives them in different places.

Experiments:
[1] = test system: GFP-positive parental T47D cells; experiment: GFP co-culture resistance transmission assay; settings: 72 hours co-culture, exosome production inhibited
Protocol: FIG. 11A is a bar graph, wherein cells were treated with either DMSO, 10 μM GW4869 or 10 μM manumycin A for 72 hours prior to exosome harvest and quantification. […] Subsequently, cells were harvested and analyzed by flow cytometry for GFP expression and cell cycle profile.

T47D cells [2] = experiment: Flow cytometry cell cycle analysis; assay type: cell-based
T47D cells [3] = experiment: Growth inhibition assay, 5 days, normalized to DMSO; assay type: cell-based; settings: for change of GI50 by CDK6 overexpression: CDK6 overexpressing vs parental T47D; for change of GI50 by miR-432 overexpression: parental T47D overexpressing miR-432 (FIG. 10A)
Protocol: (§1) Subsequently, cell growth was quantified and normalized to DMSO treated control.
Subsequently, cell growth was quantified and normalized to DMSO treated control. BLISS Synergy/antagonism score was modelled using Combenefit software. FIG. 12C is a graph, wherein T47D parental and resistant cells were treated with escalating dose of galunisertib for 5 days. Subsequently, cell growth was quantified and normalized to DMSO treated control.

[4] = test system: estrogen receptor positive (ER+) and HER2 negative breast cancer; settings: patients; previous results; cited from earlier work
[5] = test system: CDK6 protein in T47D cells; experiment: Western blot of CDK6 protein expression; assay type: cell-based; settings: palbociclib exposure up to 6 days
Protocol: Cells were lysed with RIPA buffer (10 mM Tris, pH 7.5, 1% Nonidet-P40, 2 mM Na2EDTA, 150 mM NaCl) plus protease inhibitors (Calbiochem) and protein estimation was performed by Pierce assay. Gel electrophoresis was performed with Bis-Tris 4-12% (v/v) polyacrylamide gradient gels (ThermoFisher). Samples were transferred onto Immobilin-P PVDF membrane (EMD Millipore), and probed with primary antibodies against either CDK1, CDK2, CDK4, CDK6, Cyclin D1, Cyclin D3, Cyclin E, p2′7, SMAD3, SMAD4, TGFβ, TGFβR3 (Santa Cruz), pRB (Cell signaling) or actin (Genescript). Goat anti-rabbit or goat anti-mouse HRP-linked secondary antibodies (1:1000; Dako) and ECL reagent (Perkin Elmer) were used for protein detection. Cytokines were analyzed using the Human Cytokine Array Kit performed per manufactures instructions (R&D Systems).

[6] = test system: palbociclib resistant MCF7 xenografts; experiment: Palbociclib resistant MCF7 xenograft with treatment holiday; assay type: in vivo, mice; settings: 100 mg/kg/day oral gavage, after 28 days treatment holiday
Protocol: Female nude mice (NCr-Foxn1^NU, Tactonic Laboratories) were maintained and handled in isolators under specific pathogen-free conditions for tissue distribution and efficacy studies in accordance with local guidelines and therapeutic interventions approved by the Animal Care and Use Committee of Dana-Farber Cancer Institute. Mice were implanted with 17β-estradiol pellets (0.36 mg, 90-day release, Innovative Research of America) prior to cell implantation. […] Tumors were measured throughout the experiment and relative tumor volume calculated.

MCF7 cells = experiment: Growth inhibition assay, 5 days, normalized to DMSO; assay type: cell-based; settings: for change of GI50 by CDK6 overexpression: CDK6 overexpressing vs parental MCF7 (printed MCG-7); for change of GI50 by miR-432 overexpression: parental MCF7 overexpressing miR-432 (FIG. 10B)
Description: as §1

T47D cells [7] = experiment: Annexin V apoptosis assay; settings: 48 hours
T47D cells [8] = experiment: cells; assay type: cell-based; settings: for CC50: Homo sapiens, T47D
Protocol: Cells were incubated for 14 to 21 days to allow colony formation. Colonies were fixed and permeabilised using Carnoy's fixative (75% methanol, 25% Acetic acid) and stained with 1% crystal violet and counted.
Cells stably expressing shRNA, miRNA or cDNA were generated using lentiviral transfection, as previously described using the pLKO.1 or pLEX-307 backbone (Moffat, J. et al., Cell 124: 1283-1298 (2006)). Multiple stable cell lines were generated for each protein knockdown; shRNA sequences were obtained from the RNAi Consortium database (Moffat, J. et al., Cell 124: 1283-1298 (2006)). CDK6 GeneArt cDNA sequences (K43M (Hu, M. G. et al., Blood 117: 6120-6131 (2011)), S178P (Bockstaele, L. et al., Mol. Cell Biol. 29: 4188-4200 (2009)) and R31C (Hu, M. G. et al., Blood 117: 6120-6131 (2011)) were purchased from ThermoFisher and cloned into the pLEX-307 backbone. For miRNA overexpression, ˜500 bp of DNA encompassing each miRNA sequence was PCR purified and cloned into the pLEX-307 backbone, miRNA mimics were purchased and transfected into cells as a positive control for miRNA detection. Protein expression/miRNA expression/knockdown was confirmed after 5 days of selection in puromycin (1 μg/ml for both T47D and MCF7).
CDK6 by CRIPSR/Cas9 was performed as previously described (Sanjana, N. E. et al., Nat. Meth 11: 783-784 (2014)). The following sgRNA sequence was cloned into the LentiCRIPSR v2 vector-sgCDK6-7 (targeting the 5′UTR): […] (SEQ ID NO: 2). Cells were selected using 1 μg/ml puromycin and protein knockout confirmed after ˜12 days.

[9] = test system: parotid cancer harboring CDKN2A/B loss; settings: one patient; cited from earlier work

## O=C(/C=C/c1ccc(/C=C/C(=O)Nc2ccc(C3=NCCN3)cc2)cc1)Nc1ccc(C2=NCCN2)cc1 [GW4869]
[1]
  G1 population of GFP-positive parental cells co-cultured with resistant cells: significant increase

## Cc1cccc(-c2nn3c(c2-c2ccnc4ccc(C(N)=O)cc24)CCC3)n1 [galunisertib]
T47D cells [2]; in combination with palbociclib, T47D, 24 hours
  effect on palbociclib G1 arrest: prevent G1 arrest
T47D cells [3]; combined with palbociclib, parental and resistant T47D cells
  interaction with palbociclib (BLISS synergy/antagonism): significantly antagonistic
T47D cells [3]; parental or resistant T47D cells, 5 days
  effect on growth when used alone: no effect

## N#Cc1ccc(C(c2ccc(C#N)cc2)n2cncn2)cc1 [letrozole]
[4]
  progression free survival: 14.5 months

## CCCC[C@@H](C)/C=C(C)/C=C(\C)C(=O)NC1=C[C@@](O)(/C=C/C=C/C=C/C(=O)NC2=C(O)CCC2=O)[C@@H]2O[C@@H]2C1=O [manumycin A]
[1]
  G1 population of GFP-positive parental cells co-cultured with resistant cells: significant increase

## CC(=O)c1c(C)c2cnc(Nc3ccc(N4CCNCC4)cn3)nc2n(C2CCCC2)c1=O [palbociclib]
[5]
  effect on CDK6 expression: no observable effect
T47D cells [2]; CDK6-depleted T47D cells, 100 nM, 24 hours
  sub-G1 DNA content compared to control cells: significantly more
T47D cells [2]; T47D, 100 nM, initial exposure (week 0)
  cells in the G1 phase of the cell cycle: more than 90%
T47D cells [2]; parental T47D, 100 nM or 300 nM, persisted for 14 days
  cell cycle effect in parental cells: sustained G1 arrest
T47D cells [2]; resistant cells after 6 weeks in drug-free media, 100 nM for 24 hours
  cell cycle arrest on re-challenge: indistinguishable from parental cells
[6]
  tumor burden after re-introduction of treatment: substantial regression of all but 1 tumor; also recorded: marked decrease
T47D cells [3]
  change of GI50 by CDK6 overexpression: significantly increased
  change of GI50 by miR-432 overexpression: significantly increased
MCF7 cells
  change of GI50 by CDK6 overexpression: significantly increased
  change of GI50 by miR-432 overexpression: significantly increased
T47D cells [7]; CDK6 knockdown and knockout T47D cells
  apoptosis: marked increase
T47D cells [7]; shNT-expressing T47D cells
  effect on apoptotic fraction: no effect
T47D cells [8]; read-out: LC50, survival after palbociclib treatment, CDK6 knockout T47D cells (sgK6-7)
  CC50: 34.2 nM
T47D cells [8]; read-out: LC50, survival after palbociclib treatment, INK4-insensitive CDK6 (R31C) T47D cells
  CC50: 632 nM
T47D cells [8]; read-out: LC50, survival after palbociclib treatment, constitutively active CDK6 (S178P) T47D cells
  CC50: 269 nM
T47D cells [8]; read-out: LC50, survival after palbociclib treatment, control T47D cells (sgNT)
  CC50: 66.2 nM
T47D cells [8]; read-out: LC50, survival after palbociclib treatment, kinase dead CDK6-expressing T47D cells (K43M)
  CC50: 26.6 nM
T47D cells [8]; read-out: LC50, survival after palbociclib treatment, wild-type CDK6 (WT) T47D cells
  CC50: 229 nM
T47D cells [8]; shRNA-mediated CDK6-depleted T47D cells
  survival after palbociclib treatment compared to non-target shRNA control: significantly lower survival

## CN(C)C(=O)c1cc2cnc(Nc3ccc(N4CCNCC4)cn3)nc2n1C1CCCC1 [ribociclib]
T47D cells [3]
  change of GI50 by CDK6 overexpression: significantly increased
  change of GI50 by miR-432 overexpression: significantly increased
T47D cells [3]; palbociclib resistant (100 nM) T47D vs parental
  cross-resistance of palbociclib resistant cells: significantly more resistant
MCF7 cells
  change of GI50 by CDK6 overexpression: significantly increased
  change of GI50 by miR-432 overexpression: significantly increased
MCF7 cells; palbociclib resistant (100 nM) MCF7 vs parental
  cross-resistance of palbociclib resistant cells: significantly more resistant
[9]
  clinical response: partial response
